Laboratory results taken from patent US8106055B2, “Substituted amide compounds” (Gruenenthal GmbH, priority 2007, dated 2012).

Experiments:
[1] = target: T1, bradykinin 1 receptor (B1R) of the rat (Rattus norvegicus, UniProt P97583); experiment: Functional investigation on the rat bradykinin 1 receptor (B1R), Ca2+ FLIPR assay in CHO K1 rB1R cells; format: cell-based; settings: B1R antagonism rat; test substance 10 μM; Ca2+ FLIPR, CHO K1 rB1R cells
T1 construct: expressed in transfected cells; host or cells: CHO K1 cells
T1 sequence (P97583 1-337): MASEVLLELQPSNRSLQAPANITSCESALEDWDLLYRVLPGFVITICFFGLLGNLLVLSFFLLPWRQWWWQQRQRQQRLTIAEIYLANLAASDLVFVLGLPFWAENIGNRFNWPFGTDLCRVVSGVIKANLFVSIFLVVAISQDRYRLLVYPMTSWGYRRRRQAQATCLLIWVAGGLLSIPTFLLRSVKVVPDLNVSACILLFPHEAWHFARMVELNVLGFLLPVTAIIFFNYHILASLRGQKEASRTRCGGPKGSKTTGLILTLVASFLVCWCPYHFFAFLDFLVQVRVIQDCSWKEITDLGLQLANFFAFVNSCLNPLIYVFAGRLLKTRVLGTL
Method in brief: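 Cells were dye-loaded with Fluo-4 plus probenecid, then test substances added and Ca2+ influx compared with agonist control for % activation. After 10-20 min, EC80 agonist (Lys-Des-Arg9-bradykinin human; Des-Arg9-bradykinin rat) was applied; suppression gave % inhibition and IC50 values.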

[2] = target: T2, serotonin (5-HT) reuptake (Rattus norvegicus, UniProt P31652); experiment: Inhibition of serotonin (5HT) reuptake in synaptosomes from rat brain; format: biochemical; settings: for 5-HT (inhibition of reuptake of serotonin, % inhibition): test concentration of 10 μM
T2 construct: synaptosomes are freshly isolated from areas of the rat brain; from tissue; host or cells: rat brain synaptosomes (P2 fraction)
T2 sequence (P31652 whole entry): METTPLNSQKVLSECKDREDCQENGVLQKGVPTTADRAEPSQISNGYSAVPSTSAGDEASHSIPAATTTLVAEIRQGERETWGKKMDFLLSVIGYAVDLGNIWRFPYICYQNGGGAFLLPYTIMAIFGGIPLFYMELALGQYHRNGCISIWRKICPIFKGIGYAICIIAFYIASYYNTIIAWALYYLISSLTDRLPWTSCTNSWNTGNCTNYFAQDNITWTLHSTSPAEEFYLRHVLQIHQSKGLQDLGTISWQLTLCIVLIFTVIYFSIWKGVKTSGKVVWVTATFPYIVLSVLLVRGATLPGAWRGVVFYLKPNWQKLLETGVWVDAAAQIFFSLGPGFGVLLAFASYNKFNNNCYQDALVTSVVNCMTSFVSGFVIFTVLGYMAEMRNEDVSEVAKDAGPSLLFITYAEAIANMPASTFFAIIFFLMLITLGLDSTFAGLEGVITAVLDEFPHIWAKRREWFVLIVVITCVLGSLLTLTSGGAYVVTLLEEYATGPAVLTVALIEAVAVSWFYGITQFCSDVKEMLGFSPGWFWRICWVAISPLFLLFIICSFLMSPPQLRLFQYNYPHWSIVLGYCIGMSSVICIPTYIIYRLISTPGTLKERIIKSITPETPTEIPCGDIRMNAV
Method in brief: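 Freshly isolated rat brain synaptosomes (P2 fraction) used for 5-HT reuptake. Test compound at 10 μM, activity given as % inhibition.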

[3] = Table 2, test concentration 10 μM

Row | Structure (SMILES) | B1R Ant. r [10 μM] % Inhibition [1] | 5-HT (inhibition of reuptake of serotonin, % inhibition) [2] | 5-HT reuptake [2, 3] | inhibition at 10 µM ([2]; Table 2, test concentration 10 μM, read-out: 5-HT reuptake)
1 | CN(C)C(c1ccc(Cl)cc1)C1CCC(CCNC(=O)COCCN(C)S(=O)(=O)c2c(Cl)cccc2Cl)CC1 (stereo not shown) [Example 274] | 61% | 81% |  | 
2 | CN(C)C(c1ccc(Cl)cc1)C1CCC(CCNC(=O)COCCN(C)S(=O)(=O)c2ccc(F)cc2)CC1 (stereo not shown) [Example 241] | 8% | 102% |  | 
3 | CN(C)C(c1cccc(F)c1)C1CCC(CCNC(=O)COCCN(C)S(=O)(=O)c2ccc(OC(F)(F)F)cc2)CC1 (stereo not shown) [Example 215] | 22% | 90% |  | 
4 | CN(C)C(c1ccc(Cl)cc1)C1CCC(CNC(=O)COCCN(C)S(=O)(=O)c2c(Cl)cccc2Cl)CC1 (stereo not shown) [Example 207] | 52% | 72% |  | 
5 | CN(C)C(c1cccc(F)c1)C1CCC(NC(=O)COCCN(C)S(=O)(=O)c2ccc(Cl)cc2Cl)CC1 (stereo not shown) [Example 217] | 47% | 85% |  | 
6 | CN(C)C(c1ccc(F)cc1)C1CCC(CCNC(=O)COC2CCCCC2N(C)S(=O)(=O)c2ccc(Cl)c(Cl)c2)CC1 (stereo not shown) [Example 244] | −5% | 88% |  | 
7 | CN(C)C(c1cccc(F)c1)C1CCC(CNC(=O)COC2CCN(S(=O)(=O)c3ccc(Cl)cc3Cl)C2)CC1 (stereo not shown) [Example 225] | 17% | 85% |  | 
8 | Cc1ccc(S(=O)(=O)N(C)CCOCC(=O)NC2CCC(C(c3cccs3)N(C)C)CC2)cc1 (stereo not shown) [Example 168, N-(4-((dimethylamino) (thiophen-2-yl)methyl)cyclohexyl)-2-(2-(N,4-dimethylphenylsulfamido)ethoxy)acetamide] | 16% | 85% |  | 
9 | CN(C)C(c1ccc(Cl)cc1)C1CCC(CNC(=O)COCCN(C)S(=O)(=O)c2ccc(F)cc2)CC1 (stereo not shown) [Example 263] | 32% | 102% |  | 
10 | COc1ccc(S(=O)(=O)N(C)CCOCC(=O)NCC2CCC(C(c3ccccc3)N(C)C)CC2)cc1 (stereo not shown) [Example 242] | 22% | 77% |  | 
11 | CN(C)C(c1cccs1)C1CCC(CCNC(=O)COC2CCCCC2N(C)S(=O)(=O)c2ccc(Cl)c(Cl)c2)CC1 (stereo not shown) [Example 214] | 19% | 83% |  | 
12 | CN(C)C(c1cccc(F)c1)C1CCC(CCNC(=O)COC2CCN(S(=O)(=O)c3ccc(Cl)cc3Cl)C2)CC1 (stereo not shown) [Example 259] | 25% | 90% |  | 
13 | COc1ccc(S(=O)(=O)N2CCCCC2CCOCC(=O)NCC2CCC(C(c3cccc(F)c3)N(C)C)CC2)cc1 (stereo not shown) [Example 203] | 55% | 93% |  | 
14 | CN(C)C(c1ccccc1)C1CCC(NC(=O)COCC2CCCN2S(=O)(=O)c2c(Cl)cc(Cl)cc2Cl)CC1 (stereo not shown) [Example 613, N-[4-(Dimethylaminophenylmethyl)-cyclohexyl]-2-[1-(2,4,6-trichlorobenzenesulfonyl)-pyrrolidin-2-ylmethoxy]-acetamide] | 34% |  | 62 % inhibition | 
15 | COc1ccc(S(=O)(=O)N(C)CCOCC(=O)NC2CCC(C(c3cccs3)N(C)C)CC2)cc1OC (stereo not shown) [Example 206] | 20% | 84% |  | 
16 | CN(C)C(c1ccc(F)cc1)C1CCC(NC(=O)COC2CCCCC2N(C)S(=O)(=O)c2ccc(Cl)c(Cl)c2)CC1 (stereo not shown) [Example 256] | 1% | 84% |  | 
17 | CN(C)C(c1cccc(F)c1)C1CCC(NC(=O)COCC2CCCN(S(=O)(=O)c3ccccc3)C2)CC1 (stereo not shown) [Example 266] | 24% | 97% |  | 
18 | CN(C)C(c1cccc(F)c1)C1CCC(CNC(=O)COCCN(C)S(=O)(=O)c2ccc(F)cc2)CC1 (stereo not shown) [Example 229] | 8% | 89% |  | 

Row | Structure (SMILES) | B1R Ant. r [10 μM] % Inhibition [1] | 5-HT (inhibition of reuptake of serotonin, % inhibition) [2] | 5-HT reuptake [2, 3] | inhibition at 10 µM ([2]; Table 2, test concentration 10 μM, read-out: 5-HT reuptake)
19 | COc1ccc(S(=O)(=O)N2CCCC2COCC(=O)NCCC2CCC(C(c3cccc(F)c3)N(C)C)CC2)cc1 (stereo not shown) [Example 224] | 47% | 97% |  | 
20 | Cc1ccc(S(=O)(=O)N(C)CCOCC(=O)NC2CCC(C(c3cccc(F)c3)N(C)C)CC2)cc1 (stereo not shown) [Example 226] | 24% | 91% |  | 
21 | CN(C)C(c1cccc(F)c1)C1CCC(NC(=O)COCCN(C)S(=O)(=O)c2ccc(F)cc2)CC1 (stereo not shown) [Example 205] | 5% | 84% |  | 
22 | CN(C)C(c1ccccc1)C1CCC(NC(=O)COCC2CCCN2S(=O)(=O)c2c(Cl)cc(Cl)cc2Cl)CC1 (stereo not shown) [Example 611, N-[4-(Dimethylaminophenylmethyl)-cyclohexyl]-2-[1-(2,4,6-trichlorobenzenesulfonyl)-pyrrolidin-2-ylmethoxy]-acetamide] | 68% |  | 84 % inhibition | 
23 | COc1ccc(S(=O)(=O)N2Cc3ccccc3CC2COCC(=O)NC2CCC(C(c3ccc(F)cc3)N(C)C)CC2)cc1 (stereo not shown) [Example 234] | 20% | 95% |  | 
24 | COc1cc(C)c(S(=O)(=O)N2CCC(OCC(=O)NCCC3CCC(C(c4cccc(F)c4)N(C)C)CC3)CC2)c(C)c1C (stereo not shown) [Example 232] | 5% | 98% |  | 
25 | COc1ccc(S(=O)(=O)N2CCCCC2COCC(=O)NC2CCC(C(c3cccc(F)c3)N(C)C)CC2)cc1 (stereo not shown) [Example 255] | 47% | 91% |  | 
26 | CN(C)C(c1cccc(F)c1)C1CCC(NC(=O)COCC2CCCN2S(=O)(=O)c2ccc(Cl)c(Cl)c2)CC1 (stereo not shown) [Example 211] | 10% | 90% |  | 
27 | COc1cc(C)c(S(=O)(=O)N(C)CCOCC(=O)NC2CCC(C(c3ccccc3)N(C)C)CC2)c(C)c1 (stereo not shown) [Example 239] | 97% | 78% |  | 
28 | CN(C)C(c1ccccc1)C1CCC(CNC(=O)COCCN(C)S(=O)(=O)c2c(Cl)cc(Cl)cc2Cl)CC1 (stereo not shown) [Example 614, N-[4-(dimethylaminophenylmethyl)-cyclohexylmethyl]-2-{2-[(2,4,6-trichlorobenzenesulfonyl)-methylamino]-ethoxy}-acetamide] | 29% |  |  | 90%
29 | CN(C)C(c1cccs1)C1CCC(CNC(=O)COC2CCN(S(=O)(=O)c3ccccc3)CC2)CC1 (stereo not shown) [Example 276] | 14% | 93% |  | 
30 | CN(C)C(c1cccc(F)c1)C1CCC(CCNC(=O)COCCN(C)S(=O)(=O)c2ccc(F)cc2)CC1 (stereo not shown) [Example 218] | 28% | 101% |  | 
31 | CN(C)C(c1cccc(F)c1)C1CCC(CNC(=O)COC2CCN(S(=O)(=O)c3ccc(Cl)cc3)C2)CC1 (stereo not shown) [Example 258] | 12% | 84% |  | 
32 | Cc1ccc(S(=O)(=O)N2CCC(OCC(=O)NCCC3CCC(C(c4cccs4)N(C)C)CC3)C2)cc1 (stereo not shown) [Example 272] | 32% | 88% |  | 
33 | CN(C)C(c1cccc(F)c1)C1CCC(NC(=O)COC2CCN(S(=O)(=O)c3ccccc3)C2)CC1 (stereo not shown) [Example 271] | −13% | 93% |  | 
34 | Cc1ccc(S(=O)(=O)N2CCC(OCC(=O)NCCC3CCC(C(c4cccc(F)c4)N(C)C)CC3)C2)cc1 (stereo not shown) [Example 216] | 12% | 87% |  | 
35 | CCN(CCOCC(=O)NCCC1CCC(C(c2cccc(F)c2)N(C)C)CC1)S(=O)(=O)c1c(C)cc(OC)c(C)c1C (stereo not shown) [Example 209] | 60% | 94% |  | 
